Assays:
Assay in all cases: relative viability (nuclei count vs DMSO), 5 days (fraction); higher = more cells survive
[1] = compound: Cc1ccc(C(=O)Nc2cccc(C(F)(F)F)c2)cc1Nc1cncc(C(N)=O)c1 [ALW-II-49-7] + CC(=O)c1c(C)c2cnc(Nc3ccc(N4CCNCC4)cn3)nc2n(C2CCCC2)c1=O [Palbociclib] (partner 0.5 µM)
Method in brief: (§1)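 Lung cancer cell lines were pin-tool dosed in 1536-well plates on the day after seeding, with either a lone drug or a fixed anchor-drug dose plus five library-drug doses (not always all listed) in √10 steps. Nuclei were counted on 4× images after 5 days. Relative viability is the ratio of treated-well to vehicle-well nuclei counts, with each value a median of duplicate plates.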

[2] = compound: C1CC1C(=O)NC2=NNC3=C2C=CC(=C3)C4=CC(=CC=C4)C(=O)NC5CC5 [XMD13-2] + CCNC(=O)c1noc(-c2cc(C(C)C)c(O)cc2O)c1-c1ccc(CN2CCOCC2)cc1 [Luminespib] (partner 0.01 µM)
Method in brief: as §1

[3] = compound: Cc1ccc(C(=O)Nc2cccc(C(F)(F)F)c2)cc1Nc1cncc(C(N)=O)c1 [ALW-II-49-7] + COc1cc2c(Oc3ccc(NC(=O)C4(C(=O)Nc5ccc(F)cc5)CC4)cc3F)ccnc2cc1OCCCN1CCOCC1 [Foretinib] (partner 0.25 µM)
Method in brief: as §1

[4] = compound: C1CC1C(=O)NC2=NNC3=C2C=CC(=C3)C4=CC(=CC=C4)C(=O)NC5CC5 [XMD13-2] + NC(=O)Nc1cc(-c2cccc(F)c2)sc1C(=O)N[C@H]1CCCNC1 [AZD7762] (partner 0.2 µM)
Method in brief: as §1

| Cell Line | relative viability ([1]; first compound 0.08 µM) | relative viability ([1]; first compound 0.253 µM) | relative viability ([1]; first compound 0.8 µM) | relative viability ([1]; first compound 2.53 µM) | relative viability ([1]; first compound 8 µM) | relative viability ([2]; first compound 0.05 µM) | relative viability ([2]; first compound 0.1581 µM) | relative viability ([2]; first compound 0.5 µM) | relative viability ([2]; first compound 1.581 µM) | relative viability ([2]; first compound 5 µM) | relative viability ([3]; first compound 0.08 µM) | relative viability ([3]; first compound 0.253 µM) | relative viability ([3]; first compound 0.8 µM) | relative viability ([3]; first compound 2.53 µM) | relative viability ([3]; first compound 8 µM) | relative viability ([4]; first compound 0.05 µM) | relative viability ([4]; first compound 0.1581 µM) | relative viability ([4]; first compound 0.5 µM) | relative viability ([4]; first compound 1.581 µM) | relative viability ([4]; first compound 5 µM) |
| --- | --- | --- | --- | --- | --- | --- | --- | --- | --- | --- | --- | --- | --- | --- | --- | --- | --- | --- | --- | --- |
| LCLC-103H | 0.486 | 0.533 | 0.494 | 0.495 | 0.55 | 0.958 | 0.943 | 0.998 | 1.07 | 0.739 | 0.707 | 0.832 | 0.926 | 0.735 | 0.77 | 0.774 | 0.778 | 0.768 | 0.818 | 0.85 |
| EKVX | 0.454 | 0.344 | 0.413 | 0.278 | 0.359 | 0.978 | 0.887 | 0.982 | 0.906 | 0.738 | 0.781 | 0.753 | 0.898 | 1.05 | 0.746 | 0.888 | 0.689 | 0.54 |  | 0.719 |
| NCI-H460 | 0.171 | 0.185 | 0.126 | 0.136 | 0.111 | 0.0335 | 0.0365 | 0.0372 | 0.0316 | 0.0324 | 1.09 | 1.05 | 0.84 | 1.02 | 0.899 | 0.708 | 0.751 | 0.633 | 0.66 | 0.683 |
| NCI-H2170 | 0.367 | 0.451 | 0.381 | 0.403 | 0.364 | 0.506 | 0.515 | 0.776 | 0.55 | 0.908 | 0.908 | 1.12 | 1.01 | 0.999 | 1.01 | 0.957 | 1 | 1 | 0.884 | 0.859 |
| NCI-H727 | 0.604 | 0.63 | 0.676 | 0.555 | 0.577 | 0.475 | 0.326 | 0.352 | 0.34 | 0.378 | 1.17 | 0.832 | 1.1 | 0.912 | 1.08 | 0.807 | 0.665 | 0.583 | 0.505 | 0.776 |
| NCI-H838 | 0.246 | 0.225 | 0.203 | 0.232 | 0.191 | 0.398 | 0.308 | 0.407 | 0.235 | 0.347 | 0.988 | 1.12 | 1.04 | 1.12 | 1.24 | 0.986 | 1.04 | 1.06 | 0.967 | 0.954 |
| H3255 | 0.309 | 0.314 | 0.322 | 0.28 | 0.295 | 0.859 | 0.947 | 0.859 | 0.62 | 0.955 | 1.01 | 0.827 | 0.939 | 1.02 | 0.703 | 0.949 | 1.09 | 0.829 | 0.847 | 0.855 |
| EPLC-272H | 0.273 | 0.319 | 0.317 | 0.346 | 0.343 | 0.414 | 0.125 | 0.734 | 0.199 | 0.124 | 0.665 |  | 0.712 | 0.643 | 0.917 | 0.294 | 0.237 | 0.0561 | 0.156 | 0.231 |
| NCI-H647 | 0.422 | 0.307 | 0.444 | 0.294 | 0.238 | 0.183 | 0.289 | 0.183 | 0.229 | 0.147 | 1.36 | 1.32 | 1.23 | 1.09 | 1.06 | 0.558 | 0.521 | 0.532 | 0.406 | 0.248 |
| LXF-289 | 0.529 | 0.682 | 0.625 | 0.709 | 0.674 | 0.717 | 0.618 | 0.72 | 0.76 | 0.723 | 0.98 | 1.05 | 1 | 1.07 | 1.04 | 1.14 | 1.25 | 1.2 | 1.29 | 1.17 |
| NCI-H1755 | 0.439 | 0.498 | 0.41 | 0.415 | 0.431 | 0.441 | 0.502 | 0.419 | 0.44 | 0.433 | 0.875 | 1.06 | 0.807 | 0.931 | 0.825 | 0.419 | 0.431 | 0.46 | 0.449 | 0.413 |
| HCC-15 | 0.729 | 0.722 | 0.704 | 0.712 | 0.68 | 0.379 | 0.492 | 0.479 | 0.238 | 0.192 | 1.08 | 1.1 | 1.03 | 0.96 | 1 | 1.35 | 1.15 | 1.17 | 1.22 | 1.24 |
| EMC-BAC-2 | 0.499 | 0.519 | 0.488 | 0.437 | 0.391 | 1.36 | 1.1 | 1.05 | 1.14 | 1.04 | 0.968 | 1.04 | 0.989 | 0.885 | 0.878 | 1.34 | 1.16 | 1.06 | 0.984 | 0.864 |
| NCI-H1734 | 0.293 | 0.376 | 0.355 | 0.319 | 0.296 | 0.259 | 0.179 | 0.179 | 0.192 | 0.177 | 0.958 | 0.91 | 0.871 | 0.741 | 0.799 | 0.66 | 0.673 | 0.548 | 0.501 | 0.493 |
| NCI-H1395 | 0.583 | 0.689 | 0.691 |  | 0.495 | 0.669 | 0.668 | 0.809 | 0.66 | 0.83 | 1.09 | 1.03 | 1 | 1.03 | 0.943 | 0.408 | 0.404 | 0.423 | 0.38 | 0.419 |
| HOP-62 | 0.49 | 0.423 | 0.461 | 0.33 | 0.336 | 1 | 0.878 | 0.925 | 0.881 | 0.938 | 1.22 | 1.14 | 1.17 | 0.935 | 0.837 | 0.917 | 0.799 | 0.867 | 0.598 | 0.409 |

— the supplement of paper PMC10307832
